Test results from patent US9512169B2, “3-substituted estra-1,3,5(10),16-tetraene derivatives, methods for the production thereof, pharmaceutical preparations containing same, and use thereof for the production of medicaments” (BAYER PHARMA AKTIENGESELLSCHAFT, priority 2012, dated 2016).
Values joined by “and” are separate entries in the source; they are usually repeats but may differ in a detail not shown here. Identical values can stand only once.

biological target: T1, AKR1C3 (Homo sapiens (Human), UniProt P42330); assay: AKR1C3 enzyme inhibition assay (Coumberone to Coumberol fluorescence); assay type: biochemical; settings: recombinant human AKR1C3, 15 min pre-incubation, 90 min at 22° C.; repeated lines = two experimental determinations
T1 sequence (P42330 whole entry): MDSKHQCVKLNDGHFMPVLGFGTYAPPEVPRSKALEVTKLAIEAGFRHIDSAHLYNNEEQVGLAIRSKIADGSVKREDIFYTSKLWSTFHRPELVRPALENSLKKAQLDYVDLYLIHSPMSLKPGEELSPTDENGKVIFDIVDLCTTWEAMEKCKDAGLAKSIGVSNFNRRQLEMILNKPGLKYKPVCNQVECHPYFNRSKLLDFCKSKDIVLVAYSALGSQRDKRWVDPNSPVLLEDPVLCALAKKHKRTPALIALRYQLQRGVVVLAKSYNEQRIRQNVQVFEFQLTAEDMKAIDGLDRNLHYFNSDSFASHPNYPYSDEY
Protocol: The AKR1C3-inhibitory activity of the substances of the present invention was measured in the AKR1C3 assay described in the paragraphs below.
Essentially, the enzyme activity is measured by quantification of the Coumberol from Coumberone (Halim, M., Yee, D. J., and Sames, D., J. AM. CHEM. SOC. 130, 14123-14128 (2008) and Yee, D. J., Balsanek, V., Bauman, D. R., Penning, T. M., and Sames, D., Proc. Natl. Acad. Sci. USA 103, 13304-13309 (2006)). In this test, the increase of the highly fluorescent Coumberol by NADPH- (nicotinamide adenine dinucleotide phosphate)-dependent reduction of the non-fluorescent Coumberone by AKR1C3 can be determined.
The enzyme used was recombinant human AKR1C3 (Aldo-keto reductase family 1 member C3) (GenBank Accession No. NM_003739). This was expressed in E. coli as GST (glutathione S transferase) fusion protein and purified by glutathione Sepharose affinity chromatography. The GST was removed by digestion with thrombin and subsequent size exclusion chromatography (Dufort, I., Rheault, P., Huang, X F., Soucy, P., and Luu-The, V., Endocrinology 140, 568-574 (1999)).
For the assay, 50 nl of a 100-fold concentrated solution of the test substance in DMSO were pipetted into a black low-volume 384-well microtiter plate (Greiner Bio-One, Frickenhausen, Germany), 2.0 μl of a solution of AKR1C3 in assay buffer [50 mM potassium phosphate buffer pH 7, 1 mM DTT, 0.0022% (w/v) Pluronic F-127, 0.01% BSA (w/v) and protease inhibitor cocktail (Complete, EDTA-free Protease Inhibitor Cocktail from Roche)] were added and the mixture was incubated for 15 min to allow pre-binding of the substances to the enzyme prior to the enzyme reaction. The enzyme reaction was then started by addition of 3 μl of a solution of NADPH (16.7 μM→final concentration in 5 μl of assay volume is 10 μM) and Coumberone (0.5 μM→final concentration in 5 μl of assay volume is 0.3 μM) in assay buffer, and the resulting mixture was incubated at 22° C. for the reaction time of 90 min. The concentration of the AKR1C3 was adapted to the respective activity of the enzyme preparation and adjusted such that the assay was carried out in the linear range. Typical concentrations were in the region of 1 nM. The reaction was stopped by addition of 5 μl of a stop solution consisting of the inhibitor EM-1404 [F. Labrie et al. U.S. Pat. No. 6,541,463, 2003] (2 μM→final concentration in […] is 1 μM). The fluorescence of the Coumberole was then measured at 520 nm (excitation at 380 nm) using a suitable measuring instrument (Pherastar from BMG Labtechnologies). The intensity of the fluorescence was used as a measure of the amount of Coumberole formed and thus of the enzyme activity of AKR1C3. The data were normalized (enzyme reaction without inhibitor=0% inhibition; all other assay components, but no enzyme=100% inhibition).
As described, the pharmacological substances claimed were examined for their inhibitory activity on the AKR1C3 enzyme (see Table 1). The compounds claimed show a strong inhibition of AKR1C3 in vitro (IC50 values <200 nM) and in most cases even IC50 values <50 nM.

In order of rising IC50:
1. Cc1cc(C2=CC[C@H]3[C@@H]4CCc5cc(OCC(=O)O)ccc5[C@H]4CC[C@]23C)cnn1 [Example 7, {[17-(6-Methylpyridazin-4-yl)estra-1,3,5(10),16-tetraen-3-yl]oxy}acetic acid]  1.4 nM
2. CCC(Oc1ccc2c(c1)CC[C@@H]1[C@@H]2CC[C@]2(C)C(c3cncc(F)c3)=CC[C@@H]12)C(=O)O (mixture of isomers) [Example 11, (RS)-2-{[17-(5-Fluoropyridin-3-yl)estra-1,3,5(10),16-tetraen-3-yl]oxy}butanoic acid]  2.5 nM
3. CC(Oc1ccc2c(c1)CC[C@@H]1[C@@H]2CC[C@]2(C)C(c3cncc(F)c3)=CC[C@@H]12)C(=O)O (mixture of isomers) [Example 10, (RS)-2-{[17-(5-Fluoropyridin-3-yl)estra-1,3,5(10),16-tetraen-3-yl]oxy}propanoic acid]  2.7 nM
4. CC(Oc1ccc2c(c1)CC[C@@H]1[C@@H]2CC[C@]2(C)C(c3cccnc3)=CC[C@@H]12)C(=O)O (mixture of isomers) [Example 13, (RS)-2-{[17-(3-Pyridyl)estra-1,3,5(10),16-tetraen-3-yl]oxy}propanoic acid]  2.8 nM
5. COCC(Oc1ccc2c(c1)CC[C@@H]1[C@@H]2CC[C@]2(C)C(c3cncc(F)c3)=CC[C@@H]12)C(=O)O (mixture of isomers) [Example 12, (RS)-2-{[17-(5-Fluoropyridin-3-yl)estra-1,3,5(10),16-tetraen-3-yl]oxy}-3-methoxy-propanoic acid]  4 nM
6. C[C@]12CC[C@@H]3c4ccc(OCC(=O)O)cc4CC[C@H]3[C@@H]1CC=C2c1cncc(C(=O)O)c1 [Example 6, 5-[3-(Carboxymethoxy)estra-1,3,5(10),16-tetraen-17-yl]nicotinic acid]  9.2 nM
7. C[C@]12CC[C@@H]3c4ccc(OC(C(=O)O)c5ccccc5)cc4CC[C@H]3[C@@H]1CC=C2c1cncc(F)c1 (mixture of isomers) [Example 18, (RS)-{[17-(5-Fluoropyridin-3-yl)estra-1,3,5(10),16-tetraen-3-yl]oxy}(phenyl)acetic acid]  10 nM
8. CC(Oc1ccc2c(c1)CC[C@@H]1[C@@H]2CC[C@]2(C)C(c3cncc(F)c3)=CC[C@@H]12)C(N)=O (mixture of isomers) [Example 14, (RS)-2-{[17-(5-Fluoropyridin-3-yl)estra-1,3,5(10),16-tetraen-3-yl]oxy}propanamide]  20 nM
9. C[C@]12CC[C@@H]3c4ccc(OCC(O)CO)cc4CC[C@H]3[C@@H]1CC=C2c1cncc(F)c1 (mixture of isomers) [Example 17, (RS)-3-{[17-(5-Fluoropyridin-3-yl)estra-1,3,5(10),16-tetraen-3-yl]oxy}propan-1,2-diol]  25 nM
10. C[C@]12CC[C@@H]3c4ccc(OCCCC(=O)O)cc4CC[C@H]3[C@@H]1CC=C2c1cncc(F)c1 [Example 9, 4-{[17-(5-Fluoropyridin-3-yl)estra-1,3,5(10),16-tetraen-3-yl]oxy}butanoic acid]  42 nM
11. CCNC(=O)COc1ccc2c(c1)CC[C@@H]1[C@@H]2CC[C@]2(C)C(c3cncc(C(F)(F)F)c3)=CC[C@@H]12 [Example 19, N-Ethyl-2-({17-[5-(trifluoromethyl)pyridin-3-yl]estra-1,3,5(10),16-tetraen-3-yl}oxy)acetamide]  53 nM
12. C[C@]12CC[C@@H]3c4ccc(OCCCO)cc4CC[C@H]3[C@@H]1CC=C2c1cncc(F)c1 [Example 15, 3-{[17-(5-Fluoropyridin-3-yl)estra-1,3,5(10),16-tetraen-3-yl]oxy}propan-1-ol]  54 nM
13. C[C@]12CC[C@@H]3c4ccc(OCC(=O)O)cc4CC[C@H]3[C@@H]1CC=C2c1cncnc1 [Example 5, {[17-(Pyrimidin-5-yl)estra-1,3,5(10),16-tetraen-3-yl]oxy}acetic acid]  89 nM
14. CC(C)(CO)COc1ccc2c(c1)CC[C@@H]1[C@@H]2CC[C@]2(C)C(c3cncc(F)c3)=CC[C@@H]12 [Example 16, 3-{[17-(5-Fluoropyridin-3-yl)estra-1,3,5(10),16-tetraen-3-yl]oxy}-2,2-dimethylpropan-1-ol]  124 nM
15. Cc1ccc(C2=CC[C@H]3[C@@H]4CCc5cc(OCC(=O)O)ccc5[C@H]4CC[C@]23C)cn1 [Example 4, {[17-(6-Methylpyridin-3-yl)estra-1,3,5(10),16-tetraen-3-yl]oxy}acetic acid]  136 nM

`CC(C)(COc1ccc2c(c1)CC[C@@H]1[C@@H]2CC[C@]2(C)C(c3cncc(F)c3)=CC[C@@H]12)C(=O)O` [Example 8, 3-{[17-(5-Fluoropyridin-3-yl)estra-1,3,5(10),16-tetraen-3-yl]oxy}-2,2-dimethylpropanoic acid] was tested, and the IC50 was 12 nM and 11 nM.
`C[C@]12CC[C@@H]3c4ccc(OCC(=O)O)cc4CC[C@H]3[C@@H]1CC=C2c1cncc(C(F)(F)F)c1` [Example 2, ({17-[5-(Trifluoromethyl)pyridin-3-yl]estra-1,3,5(10),16-tetraen-3-yl}oxy)acetic acid] was tested, and the IC50 was 33 nM and 23 nM.
With `C[C@]12CC[C@@H]3c4ccc(OCC(=O)O)cc4CC[C@H]3[C@@H]1CC=C2c1cncc(F)c1` [Example 3, {[17-(5-Fluoropyridin-3-yl)estra-1,3,5(10),16-tetraen-3-yl]oxy}acetic acid] the IC50 was 16 nM and 8.6 nM.

biological target: T1, AKR1C3; assay: AKR1C3 inhibition in a cell-based system (HEK293 cells transfected with AKR1C3 expression plasmid, coumberol fluorescence); settings: HEK293 cells transfected with AKR1C3, incubation overnight; repeated lines = independent determinations; read-out: Cellular AKR1C3 inhibition IC50
Protocol: The inhibition of AKR1C3 by the substances described in the present invention was measured in a cell-based assay using […] as substrate for the AKR1C3 (Halim, M., Yee, D. J., and Sames, D., J. AM. CHEM. SOC. 130, 14123-14128 (2008) and Yee, D. J., Balsanek, V., Bauman, D. R., Penning, T. M., and Sames, D., Proc. Natl. Acad. Sci. USA 103, 13304-13309 (2006)) (cf. Example 20).
The cell system used were HEK293 cells (ATCC, USA) (cell culture medium: DMEM, 1.5 g glucose, 10% FCS, PSG). The cells were transfected in an AKR1C3 expression plasmid (pCMV6-AC-AKR1C3, GenBank Accession No. NM_003739.4) overnight (X-tremeGENE HP, Roche). The next morning, the cells were sown in black 96well cell culture plates at a cell density of 40000 cells/well (Greiner Bio-One, Frickenhausen, Germany). After 7 h, the cells were incubated with the test substances (dissolved in 100× concentration in DMSO, final concentration between 10^−11M and 10^−5M) and […] (dissolved in cell culture medium, final concentration 5×10^−6M) overnight. The next morning, the fluorescence of coumberol was measured at 535 nm (excitation at 355 nm) using a suitable measuring instrument (Mithras, from Berthold). The fluorescence intensity was used as a measure of the amount of coumberol formed and thus of the enzyme activity of AKR1C3. The data were normalized (transfected cells without inhibitor, only DMSO=0% inhibition; transfected cells, 10 μM inhibitor EM-1404 [F. Labrie et al. U.S. Pat. No. 6,541,463, 2003]=100% inhibition), and the IC50 values were calculated using a 4-parameter fit.
In the cell-based assay described above, the pharmacological substances claimed were examined for their inhibitory activity on the AKR1C3 enzyme (see Table 2).

In the case of `CC(C)(COc1ccc2c(c1)CC[C@@H]1[C@@H]2CC[C@]2(C)C(c3cncc(F)c3)=CC[C@@H]12)C(=O)O` [Example 8, 3-{[17-(5-Fluoropyridin-3-yl)estra-1,3,5(10),16-tetraen-3-yl]oxy}-2,2-dimethylpropanoic acid], the IC50 is reported as 170 nM and 220 nM.
For `C[C@]12CC[C@@H]3c4ccc(OCC(=O)O)cc4CC[C@H]3[C@@H]1CC=C2c1cncc(C(F)(F)F)c1` [Example 2, ({17-[5-(Trifluoromethyl)pyridin-3-yl]estra-1,3,5(10),16-tetraen-3-yl}oxy)acetic acid], the IC50 was 48 nM and 68 nM.
In the case of `C[C@]12CC[C@@H]3c4ccc(OCC(=O)O)cc4CC[C@H]3[C@@H]1CC=C2c1cncc(F)c1` [Example 3, {[17-(5-Fluoropyridin-3-yl)estra-1,3,5(10),16-tetraen-3-yl]oxy}acetic acid], the IC50 is reported as 49 nM and 56 nM and 31 nM.
